This assay has as its system mouse model for coronary infarction. The assay is described as follows: hES-derived cardiomyocyte transplant in mouse model for coronary infarction, echocardiography. Type of assay: in vivo. The conditions noted are these: for cardiac improvement upon grafting with hES derived cardiomyocytes (measured by echocardiography): grafts pre-treated with the agent, animals optionally pre-conditioned with allopurinol and uricase, result in words. The method, then:
Cardiomyocytes were differentiated from human embryonic stem (hES) cells and purified by density gradient centrifugation on Percoll™, according to established methods (WO 03/006950). They were adapted to decrease uric acid production upon engraftment by culturing for 24 hours in standard differentiation medium (containing 20% FBS) to which had been added 50 μg/mL allopurinol, or 0.5 Units/mL human recombinant erythropoietin (EPO). Alternatively, the cells were heat shocked in standard differentiation medium (20% FBS) by incubating at 43° C. for 45 minutes, and then transferring to a 37° C. incubator 24 h prior to harvest.
Recipient mice were prepared to decrease uric acid production by the engrafted cells by daily injection of 800 μg allopurinol and/or 10 μg uricase intramuscularly for each of the 3 days before transplant.
The transplant experiments were performed using a mouse model for coronary infarction in an external research laboratory under a Research Agreement with Geron Corporation. The left anterior descending artery was ligated as follows. Mice were anesthetized in an isoflurane inhalation chamber and received intraperitoneal injection of Ketanest/Xylazine (50 mg/kg). They were then intubated and ventilated for the entire surgical procedure. Rectal temperature was maintained at 37° C. by a thermostatically regulated heating pad. One ligation with a 9.0 silk stitch was performed on the proximal 2 mm portion of the artery.
Using a 25 g needle, 0.25-2×10^6 cells (suspended in differentiation medium without serum) were injected into the demarcated area. Immediately afterwards, a chest tube (16 G Angio-cath) was inserted and the chest was closed in layers. Ventilation was maintained until there was sufficient spontaneous breathing, and extubation followed. The ventricular diameter was measured after three weeks by echocardiography. Fractional shortening ([…])≡[(diameter at diastole minus diameter at systole)÷(diameter at diastole)].

The record followed here is US20050142121A1, “System for improving acceptance of tissue grafts made from embryonic stem cells” (priority 2003, published 2005).

The structures appear in SMILES notation.

In the case of `Oc1ncnc2[nH]ncc12` [allopurinol], the “cardiac improvement upon grafting with hES derived cardiomyocytes (measured by echocardiography)” value is “considerably enhanced”. Besides, the “Fractional shortening at 3 weeks post-treatment” value (infarcted mice (left anterior descending artery ligation), 0.25-2x10^6 cells injected into infarct area, echocardiography after three weeks) was determined as 24%. As to `CC(C)Cc1ccc(C(C)C(=O)O)cc1` (stereo not drawn) [ibuprophen], the “cardiac improvement upon grafting with hES derived cardiomyocytes (measured by echocardiography)” value is “considerably enhanced”.
